Measured values from patent US11591306B2, “Vitamin E-based amphipathic compound, and use thereof” (Industry-University Cooperation Foundation Hanyang …, priority 2017, dated 2023).
Values joined by “and” are separate entries in the source; they are usually repeats but may differ in a detail not shown here. Identical values can stand only once. “Also recorded” adds a separate entry of the source.

Assays:
[1] = Critical micelle concentration by hydrophobic fluorescence staining with diphenylhexatriene (DPH); type: physicochemical; conditions: aqueous solution
Protocol: A method of measuring CMC is not particularly limited, and may be a method widely known in the art, for example, fluorescent staining using diphenylhex riene (DPH).
(§1) To identify the properties of VEGs synthesized according to the synthetic methods of Preparation Examples 1 to […] molecular weights (M.W.) and critical micellar concentrations (CMCs) of VEGs, and the hydrodynamic radii (Rh) of formed micelles were measured.
(§2) Specifically, the CMCs were measured using hydrophobic fluorescence staining and diphenylhexatriene (DPH), and the hydrodynamic radii (Rh) of the micelles formed by each formulation were measured by dynamic light scattering (DLS).

[2] = Hydrodynamic radius of micelles by dynamic light scattering (DLS); type: physicochemical; conditions: at 1.0 wt %
Protocol: A method of measuring the radius of a micelle is not particularly limited, but may be a method well known in the art, for example, dynamic light scattering (DLS).
as §1, §2

[3] = target: T1, MelBSt (melibiose permease) (Salmonella typhimurium, UniProt P30878); experiment: MelBSt extraction/solubilization and thermal stability, SDS-PAGE and Western blotting
T1 construct: made in house; host or cells: E. coli DW2 (ΔmelB and ΔlacZY), plasmid pK95ΔAHB/WT MelBSt/CH10
Protocol: Specifically, Salmonella typhimurium MelBSt (melibiose permease) having a 10 His tag at the C-terminus was expressed in E. coli DW2 cells (ΔmelB and ΔlacZY) using a pK95ΔAHB/WT MelBSt/CH10 plasmid. Cell growth and membrane preparation were carried out according to the methods disclosed in the paper written by A. S. Ethayathulla et al. (Nat. Commun. 2014, 5, 3009). A protein assay was performed using a Micro BCA kit (Thermo Scientific, Rockford, Ill.). MelBSt stability in VEGs or DDM was evaluated using the protocol disclosed in Nat. Methods 2010, 7, 1003-1008, written by P. S. Chae et al. A MelBSt-containing membrane sample (the final protein concentration was 10 mg/mL) was incubated in a solubilization buffer containing 1.5% (w/v) DDM or VEGs (50 mM sodium phosphate, pH 7.5, 200 mM NaCl, 10% glycerol, 20 mM melibiose) at two different temperatures (0 and 23° C.) for 90 minutes. To remove an insoluble material, ultracentrifugation was performed using a Beckman Optima™ MAX ultracentrifuge equipped with a TLA-100 rotor at 355,590 g and 4° C. for 30 minutes. […] The loaded samples were analyzed by SDS-15% PAGE, and then visualized by immunoblotting with a Penta-His-HRP antibody (Qiagen, Germantown, Md.).
To assess the thermal stability of MelBSt in various amphipathic molecules, MelBSt extracted with individual amphipathic molecules at 23° C. was subjected to additional thermal treatment at three different temperature (45, 55 and 65° C.) and ultracentrifugation, followed by SDS-15% PAGE and Western blotting. MelBSt was detected using a SuperSignalWest Pico chemiluminescent substrate by an ImageQuant LAS 4000 Biomolecular Imager (GE Healthcare Life Science).

β2AR = target: T2, β2AR (Homo sapiens, UniProt P07550); experiment: β2AR stability, [3H]-dihydroalprenolol (DHA) ligand binding; conditions: CMC+0.2 wt %, 10 days at room temperature
T2 construct: made in house; host or cells: Sf9 insect cells, baculovirus
Protocol: A receptor was expressed in Sf9 insect cells infected with Baculovirus and solubilized in 1% DDM. The DDM-solubilized receptor was purified by alprenolol-sepharose in the presence of 0.01% cholesteryl succinate (CHS). β2AR purified by DDM was diluted with a buffer containing DDM or VEGs (VEG-1, VEG-2, VEG-3 and VEG-5) to reach the final concentration of CMC+0.2 wt %. β2AR solubilized in each compound was stored for 10 days at room temperature, and the ligand binding ability of the receptor was measured at regular intervals by incubating the receptor with 10 nM radioactive [^3H]-dihydroalprenolol (DHA) for 30 minutes at room temperature. The mixture was loaded into a G-50 column, and a supernatant was collected using a certain amount of binding buffer (supplemented with […] pH 7.5, 100 mM NaCl, 0.5 mg/ml BSA). In addition, a 15 ml scintillation fluid was added. Receptor-binding [^3H]-DHA was measured using a scintillation counter (Beckman).

β2AR-Gs complex [4] = target: T3, β2AR-Gs complex (Homo sapiens, UniProt P07550); conditions: complex purified by DDM, previous study; cited from earlier work
T3 construct: made in house

β2AR-Gs complex [5] = target: T3, β2AR-Gs complex; conditions: DDM-purified complex, previous study; cited from earlier work
UapA [6] = target: T4, UapA (Emericella nidulans, UniProt Q07307, G411V); experiment: UapA extraction and thermal stability by fluorescence size exclusion chromatography (FSEC); set-up: made in house; conditions: for UapA integrity after thermal treatment (FSEC): 45° C. for 10 minutes; for Ability to extract and solubilize UapA (FSEC): before thermal treatment, 60 minutes on ice
Protocol: The membrane containing UapA was resuspended in a pH 8.0 PBS buffer containing 10 mM imidazole, 150 mM NaCl and 10% glycerol, and a protein concentration was measured. The membrane was adjusted to a concentration of 1 mg/ml, and a 1 ml aliquot was incubated for 60 minutes with each of 1.0 mL of DDM, LMNG, VEG-3 and VEG-5, on ice under stirring. A 100 uL aliquot was obtained from each tube and subjected to ultracentrifugation for 10 minutes at 150,000 g, and then fluorescent SEC (FSEC) was performed on each sample. The remaining soluble fractions were incubated for 10 minutes at 45° C. The thermally-treated samples were applied to FSEC to monitor the integrity of a transporter. FSEC was performed using a Superose6 column (GE Healthcare) equilibrated with a buffer containing an appropriate preparation (DDM, LMNG, VEG-3 or VEG-5).

UapA [7] = target: T4, UapA; experiment: UapA thermal stability, CPM assay; set-up: made in house; host or cells: Saccharomyces cerevisiae FGY217 membranes; conditions: CMC+0.2 wt %, 40° C. for 120 minutes
Protocol: UapAG411VΔ1-11 (hereinafter, referred to as “UapA”) was expressed in a Saccharomyces cerevisiae FGY217 strain by GFP fusion, and isolated into a sample buffer (20 mM Tris (pH 7.5), 150 mM NaCl, 0.03% DDM, 1 mM xanthine), which was performed according to the method disclosed in the paper written by J. Leung et al. (Mol. Menthr. Biol. 2013, 30, 32-42). The protein was concentrated to be approximately 10 mg/ml using a 100 kDa molecular weight cutoff filter (Millipore). The protein was diluted 1:150 with a buffer containing DDM, VEG (VEG-1, VEG-2, VEG-3, VEG-4 or VEG-5) or LMNG at CMC+0.2 wt % in Greiner 96. CPM dye (Invitrogen) stored in DMSO (Sigma) was diluted with a dye buffer (20 mM Tris (pH 7.5), 150 mM NaCl, 0.03% DDM, 5 mM EDTA), and 3 μL of the diluted dye was added to an individual protein sample. The reaction mixture was treated at a constant temperature of 40° C. for 120 minutes. A fluorescence emission intensity was monitored using a microplate spectrofluorometer set to excitation and emission wavelengths of 387 and 463 nm, respectively. The maximum fluorescence value was used to calculate the percentage of a protein folded during incubation. The relative amount of the folded protein was plotted over time using GraphPad Prism.

[8] = 1.5 wt %, extracted at 23° C., then 55° C.

T2 sequence (P07550 whole entry): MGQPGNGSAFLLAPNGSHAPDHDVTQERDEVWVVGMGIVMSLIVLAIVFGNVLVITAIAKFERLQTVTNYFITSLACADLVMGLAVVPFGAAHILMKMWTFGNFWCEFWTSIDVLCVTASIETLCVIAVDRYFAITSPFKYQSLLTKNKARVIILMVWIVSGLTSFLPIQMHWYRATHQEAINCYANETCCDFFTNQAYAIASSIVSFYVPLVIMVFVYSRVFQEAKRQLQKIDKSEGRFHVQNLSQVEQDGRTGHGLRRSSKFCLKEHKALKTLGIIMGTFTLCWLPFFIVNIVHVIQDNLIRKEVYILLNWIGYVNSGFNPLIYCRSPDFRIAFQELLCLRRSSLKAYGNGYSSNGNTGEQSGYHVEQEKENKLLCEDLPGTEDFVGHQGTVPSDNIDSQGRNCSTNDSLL
T1 sequence (P30878 whole entry): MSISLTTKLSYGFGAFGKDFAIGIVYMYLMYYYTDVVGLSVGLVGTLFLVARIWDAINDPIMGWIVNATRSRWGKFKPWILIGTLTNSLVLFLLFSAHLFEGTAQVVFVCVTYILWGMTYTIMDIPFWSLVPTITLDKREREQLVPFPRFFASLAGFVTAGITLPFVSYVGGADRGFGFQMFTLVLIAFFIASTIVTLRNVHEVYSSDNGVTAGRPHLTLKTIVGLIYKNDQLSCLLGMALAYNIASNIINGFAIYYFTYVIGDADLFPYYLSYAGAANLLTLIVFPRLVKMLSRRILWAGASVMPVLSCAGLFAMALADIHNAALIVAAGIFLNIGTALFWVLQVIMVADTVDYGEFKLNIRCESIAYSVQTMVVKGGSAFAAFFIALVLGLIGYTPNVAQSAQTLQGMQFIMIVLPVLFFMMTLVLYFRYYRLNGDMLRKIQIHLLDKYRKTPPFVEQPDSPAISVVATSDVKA
T4 sequence (Q07307 12-574 G411V): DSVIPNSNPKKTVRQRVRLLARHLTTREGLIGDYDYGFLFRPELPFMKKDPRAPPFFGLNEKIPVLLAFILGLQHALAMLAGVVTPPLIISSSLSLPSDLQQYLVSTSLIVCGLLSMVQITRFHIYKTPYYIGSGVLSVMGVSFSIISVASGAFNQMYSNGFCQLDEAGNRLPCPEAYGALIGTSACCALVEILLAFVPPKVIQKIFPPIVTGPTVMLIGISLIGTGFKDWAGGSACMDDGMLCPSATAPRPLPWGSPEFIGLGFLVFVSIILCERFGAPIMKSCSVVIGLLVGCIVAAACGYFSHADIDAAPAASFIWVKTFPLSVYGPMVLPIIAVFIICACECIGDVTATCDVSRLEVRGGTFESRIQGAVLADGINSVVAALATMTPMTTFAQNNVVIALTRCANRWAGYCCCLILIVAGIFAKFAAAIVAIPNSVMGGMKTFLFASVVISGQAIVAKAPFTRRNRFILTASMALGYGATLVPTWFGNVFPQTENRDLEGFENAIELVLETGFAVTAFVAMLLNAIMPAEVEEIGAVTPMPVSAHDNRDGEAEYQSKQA
T3 sequence (P07550 whole entry): as the sequence (P07550 whole entry) above
T3 sequence (P63092 whole entry partner): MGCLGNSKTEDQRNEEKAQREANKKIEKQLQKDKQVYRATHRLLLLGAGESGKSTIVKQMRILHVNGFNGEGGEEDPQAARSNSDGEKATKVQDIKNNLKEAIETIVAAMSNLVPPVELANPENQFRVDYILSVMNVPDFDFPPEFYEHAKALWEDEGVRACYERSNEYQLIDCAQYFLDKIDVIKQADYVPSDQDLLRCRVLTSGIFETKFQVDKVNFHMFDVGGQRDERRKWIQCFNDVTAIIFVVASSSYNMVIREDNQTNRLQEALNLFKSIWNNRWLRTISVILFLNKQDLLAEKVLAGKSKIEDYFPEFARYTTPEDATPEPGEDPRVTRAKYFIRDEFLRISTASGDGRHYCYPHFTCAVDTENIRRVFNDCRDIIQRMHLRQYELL
T3 sequence (P62873 whole entry partner): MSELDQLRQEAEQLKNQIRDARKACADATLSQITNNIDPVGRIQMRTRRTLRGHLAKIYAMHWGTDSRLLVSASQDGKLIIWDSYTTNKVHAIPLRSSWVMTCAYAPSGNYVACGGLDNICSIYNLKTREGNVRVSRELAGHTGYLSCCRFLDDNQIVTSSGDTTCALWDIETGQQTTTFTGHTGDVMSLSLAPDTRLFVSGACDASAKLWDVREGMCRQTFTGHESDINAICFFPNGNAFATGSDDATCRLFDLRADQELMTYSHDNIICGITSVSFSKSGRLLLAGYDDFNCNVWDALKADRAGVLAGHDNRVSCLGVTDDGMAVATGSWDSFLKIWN
T3 sequence (P59768 2-68 partner limits assumed): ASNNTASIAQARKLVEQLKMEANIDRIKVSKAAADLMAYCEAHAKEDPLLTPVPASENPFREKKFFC

Row | Compound | CMC [1] | CMC (wt %) [1] | Rh (nm), hydrodynamic radius of micelles [2] | MelBSt extraction/solubilization efficiency from the cell membrane ([3]; 1.5 wt % detergent, 0° C. and 23° C., 90 minutes) | MelBSt solubilization efficiency ([3]; 1.5 wt %, extracted at 23° C., then 45° C.) | MelBSt solubilization efficiency [3, 8] | Long-term β2AR activity ([3H]-DHA binding) (β2AR) | Integrity of the purified β2AR-Gs complex (β2AR-Gs complex [4]) | Homogeneity of β2AR-Gs complex particles (EM) (β2AR-Gs complex [5]) | UapA integrity after thermal treatment (FSEC) (UapA [6]) | Ability to extract and solubilize UapA (FSEC) (UapA [6]) | MelBSt solubilization ability ([3]; 1.5 wt %, extracted at 23° C., then 65° C.) | MelBSt transporter solubilization ability in the thermal stability experiment ([3]; elevated temperatures (overall)) | Ability to maintain UapA in a structurally stable state (CPM assay) (UapA [7])
1 | CCCCCCCCCCCCO[C@@H]1O[C@H](CO)[C@@H](O[C@H]2O[C@H](CO)[C@@H](O)[C@H](O)[C@H]2O)[C@H](O)[C@H]1O [DDM, n-dodecyl-β-D-maltopyranoside, reference compound] | 0.17 mM and 0.170 mM | 0.0087 wt % | 3.4 ± 0.0 nm | more efficient; also recorded: higher protein extraction efficiency than VEGs | almost similar efficiencies | significant decrease | rapid loss of activity over time | significant dissociation between the receptor and Gs protein even after 2 day-incubation | aggregation of particles | considerably degraded | superior to VEG-3 and VEG-5 |  |  | 
2 | CCCCCCCCCCC(CCCCCCCCCC)(CO[C@@H]1O[C@H](CO)[C@@H](O[C@H]2O[C@H](CO)[C@@H](O)[C@H](O)[C@H]2O)[C@H](O)[C@H]1O)CO[C@@H]1O[C@H](CO)[C@@H](O[C@H]2O[C@H](CO)[C@@H](O)[C@H](O)[C@H]2O)[C@H](O)[C@H]1O [LMNG, reference compound] |  |  |  |  |  |  |  |  |  | considerably degraded | superior to VEG-3 and VEG-5 |  |  | 
3 | Cc1c(C)c2c(c(C)c1OCC(CO[C@@H]1OC(CO)[C@@H](O)[C@H](O)C1O)(CO[C@@H]1OC(CO)[C@@H](O)[C@H](O)C1O)CO[C@@H]1OC(CO)[C@@H](O)[C@H](O)C1O)CCC(C)(CCCC(C)CCCC(C)CCCC(C)C)O2 (stereo partly shown) [VEG-1] | ~0.002 mM | ~0.0002 wt % | 4.2 ± 0.1 nm |  |  |  |  |  |  |  |  |  |  | 
4 | Cc1c(C)c2c(c(C)c1OCCOCC(CO[C@@H]1OC(CO)[C@@H](O)[C@H](O)C1O)(CO[C@@H]1OC(CO)[C@@H](O)[C@H](O)C1O)CO[C@@H]1OC(CO)[C@@H](O)[C@H](O)C1O)CCC(C)(CCCC(C)CCCC(C)CCCC(C)C)O2 (stereo partly shown) [VEG-2] | ~0.003 mM | ~0.0003 wt % | 4.7 ± 0.1 nm |  |  |  | consistently maintained during incubation for 10 days |  |  |  |  |  |  | 
5 | Cc1c(C)c2c(c(C)c1OCCC(CO[C@@H]1OC(CO)[C@@H](O[C@H]3OC(CO)[C@@H](O)[C@H](O)C3O)[C@H](O)C1O)CO[C@@H]1OC(CO)[C@@H](O[C@H]3OC(CO)[C@@H](O)[C@H](O)C3O)[C@H](O)C1O)CCC(C)(CCCC(C)CCCC(C)CCCC(C)C)O2 (stereo partly shown) [VEG-4] | ~0.003 mM | ~0.0003 wt % | 5.1 ± 0.1 nm |  |  | remained intact |  |  |  |  |  | very excellent protein solubilization ability | higher transporter solubilization ability than DDM | 
6 | Cc1c(C)c2c(c(C)c1O[C@@H]1OC(CO[C@@H]3OC(CO)[C@@H](O)[C@H](O)C3O)[C@@H](O[C@@H]3OC(CO)[C@@H](O)[C@H](O)C3O)[C@H](O[C@@H]3OC(CO)[C@@H](O)[C@H](O)C3O)C1O[C@@H]1OC(CO)[C@@H](O)[C@H](O)C1O)CCC(C)(CCCC(C)CCCC(C)CCCC(C)C)O2 (stereo partly shown) [VEG-5] | ~0.002 mM | ~0.0002 wt % | 3.9 ± 0.1 nm |  |  | remained intact | rapid loss of activity over time |  |  | maintained protein integrity | LMNG and DDM were superior to VEG-3 and VEG-5 |  |  | excellent ability to maintain UapA in a structurally stable state
